The test system of the assay is PBMC from cirrhotic patients and healthy donors. The assay is described as follows: Western blot of LC3-II lipidation in PBMC. It counts as cell-based, human. The settings on record: 30 μM chloroquine diphosphate, data not shown. The protocol: Peripheral blood mononuclear cells (PBMC) and monocyte isolation. PBMC were prepared from the blood of cirrhotic patients and healthy donors, using Ficoll density gradient centrifugation (Ficoll Paque™-plus, GE Healthcare, 17-1440-02), as previously described^43.
Cell treatment. Human monocytes, THP1-XBlue™-CD14 (Invivogen, Catalog #thpx-cd14sp) and THP1-FcγRIIA+−CD14+(kindly provided by Novimmune) monocytes were used. When indicated cells were exposed to either 30 μM chloroquine diphosphate (Sigma, C6628), 10 mM 3-Methyladenine (3-MA, Sigma, M9281-100 mg), 10 mM Diphenyleneiodonium chloride (DPI, Sigma, D2926-10 mg), or 10 mg/ml IVIg (Privigen, 100 mg/ml) for 4 hrs at 37° C., as indicated. We also used commercially synthetized Tat-conjugated peptides (30 μM, GeneCust, Dudelange): i) the Tat-p22phox N8 peptide corresponding to eight N-terminal amino acids (3-10) of p22phox that blocks the Rubicon-p22phox interaction^19; ii) its control mutant Tat-N8W9A peptide, in which one tryptophan residue is replaced by Alanine^19). In some experiments, cells were exposed to the preformed complex (10 μg/ml of mouse anti-hFcγRII mAb (clone AT-10, Santa Cruz, sc-13527) F(ab′)2 fragments+20 μg/ml goat anti-mouse anti-kappa F(ab′)2 fragments (Southern Biotech, 1052-01) or to 100 μg/ml of anti-hFcγRIIA mAb F(ab′)2 fragments (clone IV.3), purified as we previously described^26. […]
On the technique in general: Immunoblotting shows a protein as a band on a membrane.

For 1 molecule, LC3-II lipidation results are on record in patent publication US20220081481A1, “USE OF AGENTS CAPABLE OF INDUCING LC3-ASSOCIATED PHAGOCYTOSIS FOR TREATING SUSTAINED INFLAMMATION IN PATIENTS SUFFERING FROM CHRONIC LIVER DISEASE” (INSERM (INSTITUT NATIONAL DE LA SANTÉ ET DE LA RECHERCHE …, priority 2019, published 2022).

Regarding `CCN(CC)CCCC(C)Nc1ccnc2cc(Cl)ccc12` (centres unmarked) [chloroquine, chloroquine diphosphate], the LC3-II lipidation entry by setting is: (PBMC from cirrhotic patients) “further enhanced”; (cells from healthy donors) “affected more marginally”.
